Test results taken from patent US20160222014A1, “COMPOUNDS FOR REGULATING FAK AND/OR SRC PATHWAYS” (ASANA BIOSCIENCES, LLC, priority 2013, published 2016).
pIC50: −log10 of the molar value.

How the values were obtained:
[1] = biological target: T1, FAK phosphorylated at Y397 in HEK-FAK cell line overexpressing human FL FAK protein (Homo sapiens, UniProt Q05397); test: Cell based assay, Phospho-FAK ELISA; conditions: HEK stb; read-out: pFAK EC50 (μM) HEK stb
T1 construct: expressed in transfected cells
Description: D. Cell Based Assay-Phospho-FAK ELISA
The DuoSet IC ELISA (R&D systems—Cat no. DYC4528-5) provided the basic components required for the development of sandwich ELISAs to measure Focal Adhesion Kinase 1 (FAK) phosphorylated at Y397 in cell lysates. An immobilized capture antibody specific for FAK, also known as PTK2, binds both phosphorylated and unphosphorylated protein. After washing away unbound material, a biotinylated detection antibody specific for FAK phosphorylated at Y397 was used to detect only phosphorylated protein, utilizing a standard Streptavidin-HRP format. The cell line used for the assay was a stable HEK-FAK cell line overexpressing human FL FAK protein, which was generated as follows.
HEK293 cells (ATCC® CRL-1573™, 10801 University Boulevard, Manassas, Va. 20110 USA) were seeded in four 100 mm petri dishes at a seeding density of 1.5×10^6 cells per plate and incubated overnight at 37° C. in a 5% CO2 incubator. The transfection mix was prepared as follows. (A) 10 μg DNA (pCDNA4 V5/HisA vector containing Zeocin as mammalian selection marker, procured from Invitrogen) with the full length human FAK gene represented by the nucleotide sequence provided in NCBI Reference Sequence: NM_153831.3, SEQ ID NO: 1:
was added to 1.5 mL Opti-MEM® (reduced serum media is a modification of Eagle's Minimum Essential Media, buffered with HEPES and sodium bicarbonate and supplemented with hypoxanthine, thymidine, sodium pyruvate, L-glutamine, trace elements and growth factors commercially available from Invitrogen) and incubated at room temperature for 5 minutes. (B) 30 μL Lipofectamine™ Transfection reagent (Life Technologies) was added to 1.5 mL Opti-MEM® and incubated at room temperature for 5 minutes. Following this, (a) and (b) were mixed and incubated at room temperature for 20 minutes. Media was removed from cells and washed with 1× phosphate buffered saline (PBS) and the transfection mix prepared above was mixed with 3 mL of Opti-MEM®, added to the cells and incubated at 37° C. Four hours later, 6 mL of 20% Dulbecco's Modified Eagle Medium (DMEM) was added to the plates and incubated at 37° C. in a 5% CO2 incubator. Approximately 72 hours after transfection, cells were subcultured at various dilutions with fresh medium containing 0.8 mg/mL Zeocin™ (Life Technologies). Cells were replenished with selective medium every 3-4 days until cell foci were identified in the FAK transfected cells and most of the cells died in the control plates. Cells from these foci were grown in the presence of selective media and the expression of FAK was confirmed by Western Blotting. Over expression of FAK in the stably-transfected cells was quantified in the cell-based ELISA assay described below by determining the signal window, with a signal window of 2 or above considered to be robust). The HEK-FAK stable cell line thus was maintained in 0.8 mg/mL Zeocin™ (Life Technologies) and used in cell-based ELISA to assess autophosphorylation of FAK.
(i) Materials • 1. Phospho-FAK (Y397)-Capture Antibody • 2. Phospho-FAK (Y397)-Detection Antibody • 3. Streptavidin-HRP • 4. Cells used for the assay-HEK over expressing human FL FAK protein
(ii) Solutions • PBS—137 mM NaCl, 2.7 mM KCl, 8.1 mM Na2HPO4, 1.5 mM KH2PO4, pH 7.2-7.4, 0.2 μm filtered. • Wash Buffer—0.05% Tween20™ in PBS, pH 7.2-7.4 • Block Buffer—1% BSA, 0.05% NaN3, in PBS, pH 7.2-7.4. • IC Diluent #1-1% BSA in PBS, pH 7.2-7.4, 0.2 μm filtered. • IC Diluent #8-1 mM EDTA, 0.5% Triton™ X-100, 5 mM NaF in PBS, pH 7.2-7.4. IC Diluent #8 was also the base buffer for IC Diluent #3, IC Diluent #7, and Lysis. • Buffer #6. […]

[2] = biological target: T2, recombinant human FAK1 (Homo sapiens, UniProt Q05397); test: FAK1 HTRF assay; assay type: biochemical
T2 construct: fused on or other part: N-terminal 6xHis tag
Method in brief: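 IC50 values derive from HTRF % inhibition (ratio 665/620 nm, Eu–anti-phosphotyrosine 0.1 nM, SA-APC 12 nM). The kinase step ran 45 min at room temperature, pairing 10 nM His-FAK1(692–end) from baculovirus with 0.5 μM gastrin Tyr87 biotin-peptide and a reagent at 10 μM final, pH 7.4. Compound dilutions began at 10 μM.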

[3] = biological target: T3, Recombinant Src enzyme (Homo sapiens, UniProt P12931); test: Src HTRF assay; assay type: biochemical
T3 construct: purchased Millipore 14-326; host or cells: Sf21 insect cells
Method in brief: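 Run as for the FAK HTRF assay (same buffer, supplements, compound preparation and procedure), with dasatinib included. Reaction contained 0.5 μM biotin-tagged Tyk2 synthetic peptide, 5 nM Src made in Sf21 cells, and a pH7.4-buffer-prepared component at 10 μM final.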

[4] = biological target: T4, AURKB (Aurora B) enzyme (Homo sapiens, UniProt Q96GD4); test: Aurora B HTRF assay; assay type: biochemical; conditions: read-out: AuroraB IC50
T4 construct: purchased Invitrogen PVR 130
Method in brief: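 Enzyme (5 nM final) and ULight-labelled PLK Ser137 peptide (50 nM) reacted 1 h at room temperature; a 30 μM final component was also present. Detection used EDTA-containing buffer with europium anti-phospho-PLK(Ser137) antibody at 2 nM, 1 h, then time-resolved FRET readout.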

T1 sequence (Q05397 whole entry): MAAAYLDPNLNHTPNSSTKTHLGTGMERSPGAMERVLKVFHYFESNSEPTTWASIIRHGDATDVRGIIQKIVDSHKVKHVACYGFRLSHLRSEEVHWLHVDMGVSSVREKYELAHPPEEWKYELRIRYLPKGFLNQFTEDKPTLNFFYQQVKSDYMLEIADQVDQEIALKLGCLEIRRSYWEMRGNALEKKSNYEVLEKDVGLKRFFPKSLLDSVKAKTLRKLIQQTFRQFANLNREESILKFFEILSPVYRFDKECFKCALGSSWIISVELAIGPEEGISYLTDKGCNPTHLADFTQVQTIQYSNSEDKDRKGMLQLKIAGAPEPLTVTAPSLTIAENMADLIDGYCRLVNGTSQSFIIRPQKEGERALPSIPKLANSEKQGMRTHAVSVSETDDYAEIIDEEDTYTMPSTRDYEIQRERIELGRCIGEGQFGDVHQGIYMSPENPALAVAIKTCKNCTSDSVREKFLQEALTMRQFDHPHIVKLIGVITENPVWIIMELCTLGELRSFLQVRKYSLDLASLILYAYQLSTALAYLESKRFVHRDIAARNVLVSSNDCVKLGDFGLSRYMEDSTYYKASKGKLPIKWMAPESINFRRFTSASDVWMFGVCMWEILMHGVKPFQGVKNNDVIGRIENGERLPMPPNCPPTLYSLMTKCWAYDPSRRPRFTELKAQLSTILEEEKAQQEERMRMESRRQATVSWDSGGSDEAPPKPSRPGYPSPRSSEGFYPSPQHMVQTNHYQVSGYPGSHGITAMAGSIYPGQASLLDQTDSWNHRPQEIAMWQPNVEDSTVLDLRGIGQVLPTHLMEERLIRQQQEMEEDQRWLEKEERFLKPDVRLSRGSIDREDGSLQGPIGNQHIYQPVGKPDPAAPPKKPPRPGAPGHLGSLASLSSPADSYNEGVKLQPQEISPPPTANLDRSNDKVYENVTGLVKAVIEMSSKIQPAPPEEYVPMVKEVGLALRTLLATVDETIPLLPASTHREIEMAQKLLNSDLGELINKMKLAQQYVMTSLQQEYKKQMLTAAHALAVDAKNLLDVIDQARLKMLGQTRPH
T2 sequence (Q05397 422-680 limits assumed): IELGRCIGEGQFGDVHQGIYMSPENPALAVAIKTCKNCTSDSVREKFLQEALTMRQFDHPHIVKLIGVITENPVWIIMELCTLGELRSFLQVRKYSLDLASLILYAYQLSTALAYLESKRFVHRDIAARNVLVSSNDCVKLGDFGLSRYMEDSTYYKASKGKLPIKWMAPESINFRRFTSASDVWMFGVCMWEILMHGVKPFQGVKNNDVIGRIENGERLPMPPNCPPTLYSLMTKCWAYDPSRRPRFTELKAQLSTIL
T3 sequence (P12931 whole entry): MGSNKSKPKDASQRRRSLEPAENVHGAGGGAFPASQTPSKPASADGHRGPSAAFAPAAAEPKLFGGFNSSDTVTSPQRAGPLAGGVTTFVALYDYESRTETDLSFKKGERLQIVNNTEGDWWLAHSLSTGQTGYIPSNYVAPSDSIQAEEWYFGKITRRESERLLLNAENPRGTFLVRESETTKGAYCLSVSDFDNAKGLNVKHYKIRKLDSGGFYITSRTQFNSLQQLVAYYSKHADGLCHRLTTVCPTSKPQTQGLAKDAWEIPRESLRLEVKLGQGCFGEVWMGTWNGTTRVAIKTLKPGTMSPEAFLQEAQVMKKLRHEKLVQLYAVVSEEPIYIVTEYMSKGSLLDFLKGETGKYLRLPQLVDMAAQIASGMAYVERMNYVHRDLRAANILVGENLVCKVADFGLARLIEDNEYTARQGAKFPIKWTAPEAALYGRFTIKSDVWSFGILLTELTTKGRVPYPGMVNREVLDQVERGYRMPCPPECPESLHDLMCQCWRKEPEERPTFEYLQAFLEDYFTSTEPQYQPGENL
T4 sequence (Q96GD4 whole entry): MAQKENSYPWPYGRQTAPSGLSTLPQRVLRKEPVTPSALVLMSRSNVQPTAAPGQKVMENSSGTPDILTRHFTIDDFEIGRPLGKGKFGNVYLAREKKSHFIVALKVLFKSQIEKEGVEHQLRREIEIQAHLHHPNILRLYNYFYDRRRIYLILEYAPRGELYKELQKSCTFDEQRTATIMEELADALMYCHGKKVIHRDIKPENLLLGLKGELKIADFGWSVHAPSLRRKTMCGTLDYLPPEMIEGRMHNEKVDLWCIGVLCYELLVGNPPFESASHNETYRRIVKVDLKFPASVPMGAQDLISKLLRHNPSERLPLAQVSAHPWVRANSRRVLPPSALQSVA

EC50 [1] | pIC50 [2] | pIC50 [3] | pIC50 [4] | SMILES
> 1 µM | – | – | – | CN(C)Cc1ccc(Nc2ncc3ccn(Cc4cccnc4N(C)S(C)(=O)=O)c3n2)cc1 [Example 207]
– | > 7.70 | > 7.70 | > 7.70 | O=S(=O)(c1cccc2ccccc12)n1ccc2cnc(Nc3ccc(N4CCNCC4)cc3)nc21 [Example 219]
> 1 µM | – | – | – | CN(c1ncccc1Cn1ccc2cnc(Nc3ccc4c(c3)OCCN4)nc21)S(C)(=O)=O [Example 221]
> 1 µM | – | – | – | Cc1ccccc1S(=O)(=O)n1ccc2cnc(Nc3ccc(N4CCNCC4)cc3)nc21 [Example 233]
> 1 µM | – | – | – | O=S(=O)(c1ccccc1Cl)n1ncc2cnc(Nc3ccc(N4CCNCC4)cc3)nc21 [Example 254]
> 1 µM | – | – | – | O=S(=O)(c1cccc(Cl)c1)n1ncc2cnc(Nc3ccc(N4CCNCC4)cc3)cc21 [Example 308]
> 1 µM | – | – | – | CC(=O)N1CCN(c2ccc(Nc3cc4c(cn3)cnn4S(=O)(=O)c3ccccc3C#N)cc2)CC1 [Example 341]
– | > 7.70 | < 6.00 | > 7.70 | COc1ccccc1S(=O)(=O)n1ccc2cnc(Nc3ccc(N4CCNCC4)cc3)cc21 [Example 343]
– | > 7.70 | < 6.00 | > 7.70 | O=S(=O)(c1cccc2cccnc12)n1ncc2cnc(Nc3ccc(N4CCC(O)CC4)cc3)cc21 [Example 345]
> 1 µM | – | – | – | CN(c1ncccc1Cn1ccc2cnc(Nc3ccc(N4CC5CC4CN5)cc3)nc21)S(C)(=O)=O (stereo not shown) [Example 372]
> 1 µM | – | – | – | CN(c1ncccc1Cn1ncc2cnc(Nc3ccc(N4CCC(O)CC4)cc3)cc21)S(C)(=O)=O [Example 394]
– | > 7.70 | < 6.00 | > 7.70 | COc1cc(N2CCOCC2)ccc1Nc1cc2c(ccn2S(=O)(=O)c2cccc3cccnc23)cn1 [Example 401]
– | > 7.70 | > 7.70 | > 7.70 | COc1cc(Nc2ncc3ccn(Cc4ccccc4N(C)S(C)(=O)=O)c3n2)ccc1N1CCN(C)CC1 [Example 429]
> 1 µM | – | – | – | CN(c1ccccc1Cn1ccc2cnc(Nc3ccc4c(c3)C(=O)NC4=O)nc21)S(C)(=O)=O [Example 435]
– | < 6.00 | < 6.00 | < 6.00 | CN(c1ncccc1CN1CC(C)(C)c2cnc(Nc3ccc(N4CCNCC4)cc3)nc21)S(C)(=O)=O [Example 437]
> 1 µM | – | – | – | COc1c(Nc2ncc3ccn(Cc4ccccc4N(C)S(C)(=O)=O)c3n2)ccc(N2CCNCC2)c1F [Example 456]
> 1 µM | – | – | – | CC1(C)CN(S(=O)(=O)c2ccccc2OC(F)F)c2nc(Nc3ccc(N4CCNCC4)cc3)ncc21 [Example 464]
> 1 µM | – | – | – | C[C@H]1CN(C)CCN1c1ccc(Nc2ncc3ccn(Cc4cccnc4N(C)S(C)(=O)=O)c3n2)cc1 [Example 497]
– | > 7.70 | < 6.00 | < 6.00 | COc1cc(N2CCN(C)CC2)ccc1Nc1ncc2c(n1)N(S(=O)(=O)c1cccc3cccnc13)CC2(C)C [Example 504]
> 1 µM | – | – | – | CN1CCCN(c2ccc(Nc3ncc4ccn(Cc5ccccc5N(C)S(C)(=O)=O)c4n3)cc2)CC1 [Example 520]
> 1 µM | – | – | – | CC1CN(c2ccc(Nc3ncc4ccn(Cc5cccnc5N(C)S(C)(=O)=O)c4n3)cc2)CC(C)N1 (stereo not shown) [Example 522]

EC50 [1] | pIC50 [2] | pIC50 [3] | pIC50 [4] | SMILES
– | < 6.00 | < 6.00 | < 6.00 | CN(c1ccccc1C(=O)N1CC(C)(C)c2cnc(Nc3ccc(N4CCNCC4)cc3)nc21)S(C)(=O)=O [Example 528]
> 1 µM | – | – | – | CN(C)C1CCN(c2ccc(Nc3ncc4ccn(Cc5cccnc5N(C)S(C)(=O)=O)c4n3)cc2)CC1 [Example 530]
> 1 µM | – | – | – | C[C@@H]1CN(c2ccc(Nc3cc4c(ccn4S(=O)(=O)c4ccccc4C#N)cn3)cc2)CCN1 [Example 537]
> 1 µM | – | – | – | CN(c1ncccc1Cn1ccc2cnc(Nc3ccc4c(c3)CC3CNCCN43)nc21)S(C)(=O)=O (stereo not shown) [Example 538]
> 1 µM | – | – | – | CN(c1ncccc1Cn1ccc2cnc(Nc3ccc(N4CCNC(C)(C)C4=O)cc3)nc21)S(C)(=O)=O [Example 540]
> 1 µM | – | – | – | CN(c1ncccc1Cn1ccc2cnc(Nc3ccc(N4CCCNCC4)cc3)nc21)S(C)(=O)=O [Example 549]
– | < 6.00 | < 6.00 | < 6.00 | CS(=O)(=O)N(CCN)c1ccccc1Cn1ccc2cnc(Nc3ccc(N4CCNCC4)cc3)nc21 [Example 558]
> 1 µM | – | – | – | CN1C(=O)Cc2cc(Nc3ncc4ccn(Cc5cccnc5N(C)S(C)(=O)=O)c4n3)ccc21 [Example 560]
> 1 µM | – | – | – | C[C@@H]1CN(c2ccc(Nc3ncc4ccn(Cc5cccnc5N(C)S(C)(=O)=O)c4n3)cc2F)CCN1 [Example 561]
> 1 µM | – | – | – | CN(c1ccccc1Cn1ccc2cnc(Nc3ccc(N4CCNCC4)c(CO)c3)nc21)S(C)(=O)=O [Example 568]
> 1 µM | – | – | – | CN(C)C1CN(c2ccc(Nc3ncc4ccn(Cc5cccnc5N(C)S(C)(=O)=O)c4n3)cc2)C1 [Example 580]
> 1 µM | – | – | – | CN(C)C1CCN(c2ccc(Nc3ncc4ccn(Cc5cccnc5N(C)S(C)(=O)=O)c4n3)cc2)C1 (stereo not shown) [Example 589]
> 1 µM | – | – | – | CN(c1ncccc1Cn1ccc2cnc(Nc3ccc(OCCN4CCOCC4)cc3)nc21)S(C)(=O)=O [Example 613]
– | > 7.70 | < 6.00 | < 6.00 | COc1cc(N2CCNCC2)ccc1Nc1cc2c(cn1)C(C)(C)CN2S(=O)(=O)c1cccc2cccnc12 [Example 635]
> 1 µM | – | – | – | CCC1CN(c2ccc(Nc3ncc4ccn(Cc5cccnc5N(C)S(C)(=O)=O)c4n3)cc2)CCN1 (stereo not shown) [Example 645]
> 1 µM | – | – | – | C[C@H](O)CN1CCN(c2ccc(Nc3ncc4ccn(Cc5cccnc5N(C)S(C)(=O)=O)c4n3)cc2)C[C@@H]1C [Example 663, N-(3-((2-((4-((S)-4-((S)-2-Hydroxypropyl)-3-methylpiperazin-1-yl)phenyl)amino)-7H-pyrrolo[2,3-d]pyrimidin-7-yl)methyl)pyridin-2-yl)-N-methylmethanesulfonamide]
> 1 µM | – | – | – | C[C@@H](O)CN1CCN(c2ccc(Nc3ncc4ccn(Cc5cccnc5N(C)S(C)(=O)=O)c4n3)cc2)CC1 [Example 666]
> 1 µM | – | – | – | CN(c1ncccc1Cn1ccc2cnc(Nc3ccc4[nH]ccc4c3)nc21)S(C)(=O)=O [Example 667]
> 1 µM | – | – | – | CN(c1ncccc1Cn1ccc2cnc(Nc3ccc4[nH]c(C5CCNCC5)cc4c3)nc21)S(C)(=O)=O [Example 677]
> 1 µM | – | – | – | CN(c1ncccc1Cn1ccc2cnc(Nc3ccc(NC4CCNCC4)cc3)nc21)S(C)(=O)=O [Example 684]
